Measurements: PMC6628623, “Effects of Destruxin A on Silkworm’s Immunophilins” (Toxins, 2019)
Where a SMILES comes first, the peptide text is derived from it. [ ]: non-standard residue; d: D form. dLac(3-vinyl) = C=CC[C@@H](O)C(=O)O; NMeV = CN[C@H](C(=O)O)C(C)C; NMeA = CN[C@@H](C)C(=O)O; βAla = NCCC(=O)O

Columns and labels:
BmPPI = biological target: T1, BmPPI (Bombyx mori, UniProt Q1HQ20); test: bio-layer interferometry, His-tagged protein on Ni-NTA biosensor; format: binding
T1 construct: cyclophilin superfamily
T1 sequence (Q1HQ20 1-171): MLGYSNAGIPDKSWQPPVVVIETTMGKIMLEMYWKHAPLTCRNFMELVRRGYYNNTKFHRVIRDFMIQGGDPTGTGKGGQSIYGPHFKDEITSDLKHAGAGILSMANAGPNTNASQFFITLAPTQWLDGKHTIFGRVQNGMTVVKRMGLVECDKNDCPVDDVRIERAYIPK
Source text: bio-layer interferometry, His-tagged protein on Ni-NTA biosensor on BmPPI

[1] = biological target: Bmo.3174 (predicted B. mori cell division cycle 5-like protein, BmCDC5), DNA-binding-domain fusion (Bombyx mori (silkworm)); test: two-hybrid; insect two-hybrid (I2H) in Spodoptera frugiperda Sf-9 cells co-transfected with AD, DBD and PIE-Luc vectors; luciferase read-out (lumen value) against untransfected Sf-9 cells (CK, 40); 27 °C

lumen value (luciferase, I2H) [1]	Compound	Kd (BmPPI) [µM]
	C=CC[C@H]1OC(=O)CCNC(=O)[C@H](C)N(C)C(=O)[C@H](C(C)C)N(C)C(=O)[C@H]([C@@H](C)CC)NC(=O)[C@@H]2CCCN2C1=O [DA, Destruxin A] (cyclo(I[NMeV][NMeA][βAla][dLac(3-vinyl)]P))	1980
580	peptidyl-prolyl cis-trans isomerase (BmPPI), activation-domain fusion (natural protein)	
